The values that follow come from article PMC12040169 (PLOS Biology, 2025).

As usually defined, the viability is a read-out of living cells in per cent, often relative to untreated cells.

A short description of the data set: in vitro. As to conditions: human, hela cells, % viability.

On to `O=C(O)CN1C(=O)C(O)=C(C(=O)c2ccc(Cl)cc2)C1c1ccccc1[N+](=O)[O-]` (stereo not shown) [CBK263794], for which the viability at 28.5 h, 10 µM came to 98.5%.
Regarding `CN1CCN(CC(CC(=O)Nc2ccccc2)C(=O)O)CC1` (stereo not shown) [CBK286746], the viability at 28.5 h, 10 µM turned out to be 81.8%.
On the same count and under the same terms, with `CC1CCCN(c2nc3cc(C(=O)O)sc3[nH]2)C1` (stereo not shown) [CBK287159] the figure was 88.8%; with `Cc1cc(C)n(CCC(=O)N2CCCCC2C(=O)O)n1` (stereo not shown) [CBK304678], 103%; with `CN(C)C(=O)c1cc(Br)cnc1NCc1ccc2c(c1)OCO2` [CBK076293], 110%.
Take `CCCCN1C(=O)C(O)(c2c(C)nn(CCC#N)c2N)c2ccccc21` (stereo not shown) [CBK306211]: the viability at 28.5 h, 10 µM (bulk resorufin, single well) is 110%.
As for `COc1ccc(CN2C(=S)N(c3ccccc3)[C@H]3[C@@H]2[C@H]2OC(=O)[C@@H]3C[C@H]2O)cc1` [CBK288937], the viability at 28.5 h, 10 µM came to 108%.
In the case of `COc1ccc(CCN2C(=O)CC(N3CCN(Cc4ccc5c(c4)OCO5)CC3)C2=O)cc1OC` (stereo not shown) [CBK074555], the viability at 28.5 h, 10 µM was found to be 88%.
Still for that read-out and setting: the same measure for `CN1CCC(N(C)Cc2ccc3c(c2)OCO3)CC1` [CBK261564]: 86.8%; for `N#Cc1cccc(-c2cnc(N)c(-c3ccc(O)cc3)n2)c1` [CBK115630]: 98%.
As for `Cc1c(C(=O)C2=C(O)C(=O)N(CCCN(C)C)C2c2ccccn2)cnn1-c1ccccc1` (stereo not shown) [CBK266516], the viability at 28.5 h, 10 µM is 100%.
Regarding `CC1(C)CC(=O)c2sc(NC(=O)Nc3ccccc3)nc2C1` [CBK287319], the viability at 28.5 h, 10 µM is 104%.
For `Cc1ccc(OC(C)C(=O)NCCCN2CCOCC2)cc1C` (stereo not shown) [CBK268109], the viability at 28.5 h, 10 µM turned out to be 94.3%.
Same read-out and setting: the same measure for `Cc1cc(NC(=O)CN2CC(C(=O)N3CCN(c4ccccc4)CC3)C2)no1` [CBK285665]: 112%; for `O=C(Cn1c(=O)n(Cc2cccs2)c2ncccc21)NC1CC1` [CBK283898]: 90.6%; for `CCOC(=O)C(NC(=O)CCn1ccc2ccncc21)C(C)C` (stereo not shown) [CBK284719]: 91.6%.
Still for that read-out and setting: with `CC(NC(=O)c1cc(C(F)(F)F)n(C)n1)c1cccnc1` (stereo not shown) [CBK282203] the figure was 97.6%.
In the case of `COC(=O)c1ccc(-n2cccn2)c(C#Cc2cccnc2)c1` [CBK284525], the viability at 28.5 h, 10 µM is 95.2%.
As for `COCCn1c(SCc2cn3ccccc3c2C#N)nc(C)c1C` [CBK306282], the viability at 28.5 h, 10 µM was 92.4%.
Still for that read-out and setting: with `CN(CCCNC(=O)c1ncoc1-c1cccs1)c1ccccc1` [CBK282248] the figure was 103%; with `O=C(Cc1c[nH]c2ccccc12)N1CCC2(CCCN(C(=O)c3cccc(C(F)(F)F)c3)C2)C1` (stereo not shown) [CBK131578], 97.2%; with `O=C1NCCNC(=O)C2(C/C=C/COc3ccccc31)CCN(C(=O)c1cncs1)CC2` [CBK292023], 95.3%.
Turning to `CCOC(=O)c1c(CSc2ccc(Cl)cc2)n(C)c2cc(Br)c(O)c(CN(C)C)c12` [CBK217489C], the viability at 28.5 h, 10 µM amounted to 108%.
Turning to `COc1ccnc(N2CCN(C(=O)c3ccncc3Cl)CC2)n1` [CBK304367], the viability at 28.5 h, 10 µM worked out at 102%.
Take `CCCCC(=O)Nc1nc(-c2ccc(S(=O)(=O)N3CCOCC3)cc2)cs1` [CBK096107]: the viability at 28.5 h, 10 µM was found to be 86%.
The same measure, in the same setting: the same measure for `Cc1ccc2[nH]cc(CCNC(=O)c3cccc(NC(=O)c4ccccc4)c3)c2c1` [CBK269235]: 86.6%; for `CCOc1ccccc1NC(=O)CSc1nc(N)cc(O)n1` [CBK268075]: 107%.
With `NC1=NNC2=C(c3cccc(Cl)c3)NNN12` [CBK093661], the viability at 28.5 h, 10 µM stood at 87.3%.
The same measure, in the same setting: the same measure for `O=C(Nc1ccc2nonc2c1)N1CCOCC1` [CBK057530]: 90.8%; for `C[C@@H]1CN(C(=O)c2n[nH]c3ccccc23)C[C@H](C)O1` [CBK200232]: 98.6%; for `CCn1ncc2c1CCCC2NC1CCCN(c2cnn(C)c2)C1=O` (stereo not shown) [CBK305316]: 88.7%.
Take `Cc1nc(C)c(C(=O)NC(Cc2ccsc2)c2nccs2)s1` (stereo not shown) [CBK282822]: the viability at 28.5 h, 10 µM came to 82.3%.
Take `C=CCn1c2cc(C)sc2c2cnn(CC(=O)OC)c(=O)c21` [CBK284166]: the viability at 28.5 h, 10 µM is 89.3%.
With `CCC(Oc1ccccc1)C(=O)Nc1ccccc1-c1ccccc1` (stereo not shown) [CBK266031], the viability at 28.5 h, 10 µM is 108%.
Take `Cc1cc(CN2CCCN(S(=O)(=O)c3ccc(C(F)(F)F)cc3Cl)CC2)cc(C)c1O` [CBK063102]: the viability at 28.5 h, 10 µM was 91.2%.
In the case of `CC1CCCCN1CC(=O)Nc1ccccc1Oc1ccccc1` (stereo not shown) [CBK023182C], the viability at 28.5 h, 10 µM was found to be 95.1%.
Consider `Cc1cc2c(cc3c(=O)n(CCN4CCCC4)nc(C)n32)s1` [CBK284126], for which the viability at 28.5 h, 10 µM is 95.5%.
As to `Cc1nc(NC(=O)Cn2nc(N3CCSCC3)ccc2=O)sc1C` [CBK307622], the viability at 28.5 h, 10 µM amounted to 98.3%.
Still for that read-out and setting: with `CCC1=NN(c2ccccc2)C(=O)C(CC(=O)Nc2ccccc2)c2cc(OC)c(OC)cc21` (stereo not shown) [CBK260938] the figure was 89%.
For `Cc1ccc(C(=O)C2=C(O)C(=O)N(CCO)C2c2ccccc2[N+](=O)[O-])cc1` (stereo not shown) [CBK263822], the viability at 28.5 h, 10 µM came out at 97.1%.
On to `COc1cccc(CN2CCC(c3ncc(C(=O)Nc4ccc(F)cc4)c(C)n3)CC2)c1` [CBK285630], for which the viability at 28.5 h, 10 µM was found to be 89.8%.
For the compound `Cc1csc(NC(=O)c2cccc(S(=O)(=O)NCC3CCCO3)c2)n1` (stereo not shown) [CBK305017], the viability at 28.5 h, 10 µM is 96.7%.
With `Cc1ccc(C23CC4CC(CC(C(=O)NC(C(=O)O)C(C)C)(C4)C2)C3)cc1` (stereo not shown) [CBK264924], the viability at 28.5 h, 10 µM came to 110%.
Take `CC1CC(=O)Nc2ccccc2N1C(=O)Cn1c(=O)cnc2ccccc21` (stereo not shown) [CBK297116]: the viability at 28.5 h, 10 µM stood at 95%.
Regarding `O=c1[nH]c2ccccc2n1CCCN1CCC(Oc2cncc(OCC3COc4ccccc4O3)n2)C1` (stereo not shown) [CBK084380], the viability at 28.5 h, 10 µM came to 94.4%.
In the case of `Cc1cc2nc(-c3ccc(C(=O)O)cc3)[nH]c2cc1C` [CBK096054], the viability at 28.5 h, 10 µM worked out at 91.6%.
As for `CCCNC(CC(=O)Nc1ccccc1)C(=O)O` (stereo not shown) [CBK266819], the viability at 28.5 h, 10 µM turned out to be 95.3%.
On to `Cn1cc(-c2nc(C(=O)N3CCN(c4ncccn4)CC3)cs2)cn1` [CBK305626], for which the viability at 28.5 h, 10 µM was 91%.
Still for that read-out and setting: the same measure for `CC(=O)Nc1ccc(-c2nc3c4ccccc4c4ccc(I)cc4c3[nH]2)cc1` [CBK262667]: 100%; for `O=S(=O)(Oc1ccc2ccccc2c1)c1ccc2c(c1)Cc1cc(S(=O)(=O)Oc3ccc4ccccc4c3)ccc1-2` [CBK262385]: 105%.
The same measure, in the same setting: with `COc1ccc([C@@]23CC[C@@H](NC(=O)Nc4ccc(F)c(C#N)c4)C[C@@H]2N(C)CC3)cc1OC` [CBK051659T] the figure was 84%; with `CCN(CC)C(=O)C1CCCN(C(=O)NCCCSC)C1` (stereo not shown) [CBK156118], 95.1%; with `CCOC(=O)CSc1nc2ccc(I)cc2c(=O)n1Cc1ccccc1` [CBK266602], 107%.
Turning to `COc1cccc(Oc2nccnc2-c2ccc3c(c2)OCO3)c1` [CBK106704], the viability at 28.5 h, 10 µM stood at 94.9%.
As to `Cc1ccc2c(c1)CC(=O)NC21CCN(C(=O)C2CC2C(=O)O)CC1` (stereo not shown) [CBK047258], the viability at 28.5 h, 10 µM amounted to 103%.
Regarding `CN(C)CCCNC=C1C(=O)CC(C)(C)CC1=O` [CBK262043], the viability at 28.5 h, 10 µM stood at 92.2%.
`O=C(CN1CCN(Cc2ccccc2)CC1)Nc1cccc(Cl)c1` [CBK267850]: the viability at 28.5 h, 10 µM is 113%.
For `N/C(CS(=O)(=O)Cc1ccc(F)cc1)=N/O` [CBK010956], the viability at 28.5 h, 10 µM was found to be 89.2%.
Consider `CC(Sc1nc2c(N)ncnc2[nH]1)C(=O)O` (stereo not shown) [CBK261814], for which the viability at 28.5 h, 10 µM is 106%.
The same measure, in the same setting: with `O=C(CSCc1ccccc1Br)Nc1ccccc1-c1ccccc1` [CBK265959] the figure was 88.4%; with `N#Cc1c(C(F)(F)F)cc(-c2ccco2)nc1SCc1ccccn1` [CBK267450], 88.5%; with `COc1cccc(/C=C2/NC(=O)N(c3cccc(Cl)c3)C2=O)c1OCc1cccc(C(=O)O)c1` [CBK265626], 109%.
In the case of `CN1Cc2ccccc2OC2(CCCN(C(=O)C3CC3)CC2)C1` (stereo not shown) [CBK285131], the viability at 28.5 h, 10 µM worked out at 110%.
For `O=C(NC1(CN2CCCCC2)CCCCC1)NS(=O)(=O)c1ccc(Cl)cc1` [CBK022858], the viability at 28.5 h, 10 µM is 94.4%.
As for `CCn1c(=O)n(CC(=O)N(C(C)C)C(C)C)c2cccnc21` [CBK283943], the viability at 28.5 h, 10 µM stood at 100%.
As to `CC(C)OC(=O)c1ccc(NC(=O)c2csc3c2CCCC3)cc1` [CBK058649], the viability at 28.5 h, 10 µM worked out at 106%.
Consider `CC(=O)Nc1ccccc1NC(=O)c1ccccc1CCc1ccccc1` [CBK268621], for which the viability at 28.5 h, 10 µM amounted to 97.1%.
For the compound `O=C(NC1CCCCC1)O[C@@H]1CO[C@H]2[C@@H]1OC[C@@H]2Nc1nccc(-c2cccs2)n1` [CBK289514], the viability at 28.5 h, 10 µM is 87.4%.
Same read-out and setting: with `Cc1cccn2c(=O)cc(CN3CCC(CNc4ccccn4)C3)nc12` (stereo not shown) [CBK306123] the figure was 103%.
For the compound `Cn1nnnc1SCCNC(=O)Nc1cccc(N2CCOC2=O)c1` [CBK306593], the viability at 28.5 h, 10 µM turned out to be 84.4%.
Same read-out and setting: with `Cc1cc(-c2nc3ncccc3o2)ccc1NC(=O)c1ccc2c(c1)OCCO2` [CBK270104] the figure was 94.1%.
Consider `CN(C)CCCNc1oc(/C=C/c2cccs2)nc1C#N` [CBK269317], for which the viability at 28.5 h, 10 µM worked out at 86.7%.
`O=C(Oc1ccccc1O)c1cccc(Cl)c1` [CBK090130]: the viability at 28.5 h, 10 µM was 97.1%.
Turning to `Fc1ccc(N(CCCN2CCN(c3ncccn3)CC2)c2ccc(F)cc2)cc1` [CBK025127C], the viability at 28.5 h, 10 µM stood at 98.8%.
On to `COc1ncccc1C(=O)N1CCc2ccccc21` [CBK200402], for which the viability at 28.5 h, 10 µM was 91.5%.
The same measure, in the same setting: with `O=C1N(C2CCCCC2)CC2C(c3ccccc3)ONC12O` (stereo not shown) [CBK021700] the figure was 97%; with `NS(=O)(=O)c1ccc(NC(=O)c2ccc(NC(=O)C3COc4ccccc4O3)cc2)cc1` (stereo not shown) [CBK266573], 101%.
For `Nc1nnnn1/N=C/c1cc(Cl)cc(Cl)c1OCc1ccc(Cl)cc1Cl` [CBK263853], the viability at 28.5 h, 10 µM was found to be 107%.
Still for that read-out and setting: with `COc1ccccc1CN1CC[C@H]2[C@@H](C1)[C@H](c1ccsc1)CN2C(=O)c1ccccc1` [CBK285617] the figure was 96%.
